Source: ChEMBL document CHEMBL5257109, “Development of actein derivatives as potent anti-triple negative breast cancer agents” (Bioorg Med Chem Lett, 2023)
Active and inactive are the calls of the source. The calls are words filed in the database; no cut-off is given here.

How the values were obtained:
HCC1806 [1] = experiment: Antiproliferative activity against human HCC1806 cells assessed as inhibition of cell growth incubated for 36 hrs by SRB assay; assay type: functional, cell-based; settings: for IC50: HCC1806, 36 h
MDA-MB-231 [2] = experiment: Antiproliferative activity against human MDA-MB-231 cells assessed as inhibition of cell growth incubated for 36 hrs by SRB assay; assay type: functional, cell-based; settings: for IC50: MDA-MB-231, 36 h
HCC1806 [3] = experiment: Antiproliferative activity against human HCC1806 cells assessed as inhibition of cell growth at 20 uM incubated for 36 hrs by SRB assay relative to control; assay type: functional
MDA-MB-231 [4] = experiment: Antiproliferative activity against human MDA-MB-231 cells assessed as inhibition of cell growth at 20 uM incubated for 36 hrs by SRB assay relative to control; assay type: functional

| SMILES | IC50 (HCC1806 [1]) [µM] | IC50 (MDA-MB-231 [2]) [µM] | inhibition at 20 µM (HCC1806 [3]) [%] | inhibition at 20 µM (MDA-MB-231 [4]) [%] | Activity (HCC1806 [1]) | Activity (MDA-MB-231 [2]) |
| --- | --- | --- | --- | --- | --- | --- |
| CC(=O)O[C@@H]1[C@@H](OC(C)=O)[C@H](O[C@H]2CC[C@]34C[C@]35CC(=O)[C@]3(C)[C@H]6[C@H](C)C[C@]7(OC(OC(=O)c8ccccc8F)[C@@]8(C)O[C@@H]78)O[C@H]6C[C@@]3(C)[C@@H]5CC[C@H]4C2(C)C)OC[C@H]1OC(C)=O (some centres undefined) |  |  |  |  | inactive | inactive |
| CC(=O)O[C@@H]1[C@@H](OC(C)=O)[C@H](O[C@H]2CC[C@]34C[C@]35CC(=O)[C@]3(C)[C@H]6[C@H](C)C[C@]7(OC(=O)[C@@]8(C)O[C@@H]78)O[C@H]6C[C@@]3(C)[C@@H]5CC[C@H]4C2(C)C)OC[C@H]1OC(C)=O |  |  |  |  | inactive | inactive |
| CC(=O)O[C@@H]1[C@@H](OC(C)=O)[C@H](O[C@H]2CC[C@]34C[C@]35CC(=O)[C@]3(C)[C@H]6[C@H](C)C[C@]7(OC(OC(=O)c8ccccc8)[C@@]8(C)O[C@@H]78)O[C@H]6C[C@@]3(C)[C@@H]5CC[C@H]4C2(C)C)OC[C@H]1OC(C)=O (some centres undefined) |  |  |  |  | inactive | inactive |
| CC(=O)O[C@@H]1O[C@]2(C[C@@H](C)[C@H]3[C@H](C[C@@]4(C)[C@@H]5CC[C@H]6C(C)(C)[C@@H](O[C@@H]7OC[C@@H](O)[C@H](O)[C@H]7O)CC[C@@]67C[C@@]57C[C@@H](OC(C)=O)[C@]34C)O2)[C@@H]2O[C@]12C | > 20 | > 20 |  |  |  |  |
| C[C@@H]1C[C@]2(OC(O)[C@@]3(C)O[C@@H]23)O[C@H]2C[C@@]3(C)[C@@H]4CC[C@H]5C(C)(C)[C@@H](O[C@@H]6OC[C@@H](O)[C@H](O)[C@H]6O)CC[C@@]56C[C@@]46C[C@@H](O)[C@]3(C)[C@@H]12 (some centres undefined) | > 20 | > 20 |  |  |  |  |
| CC(=O)O[C@@H]1[C@@H](OC(C)=O)[C@H](O[C@H]2CC[C@]34C[C@]35C[C@@H](OC(C)=O)[C@]3(C)[C@H]6[C@H](C)C[C@]7(OC(=O)[C@@]8(C)O[C@@H]78)O[C@H]6C[C@@]3(C)[C@@H]5CC[C@H]4C2(C)C)OC[C@H]1OC(C)=O | > 20 | > 20 |  |  |  |  |
| CC(=O)O[C@@H]1[C@@H](OC(C)=O)[C@H](O[C@H]2CC[C@]34C[C@]35C[C@@H](OC(C)=O)[C@]3(C)[C@H]6[C@H](C)C[C@]7(O[C@H](OC(=O)/C=C/c8ccc(OC(F)(F)F)cc8)[C@@]8(C)O[C@@H]78)O[C@H]6C[C@@]3(C)[C@@H]5CC[C@H]4C2(C)C)OC[C@H]1OC(C)=O | > 20 | > 20 |  |  |  |  |
| CC(=O)O[C@@H]1[C@@H](OC(C)=O)[C@H](O[C@H]2CC[C@]34C[C@]35C[C@@H](OC(C)=O)[C@]3(C)[C@H]6[C@H](C)C[C@]7(O[C@H](OC(=O)c8ccccc8F)[C@@]8(C)O[C@@H]78)O[C@H]6C[C@@]3(C)[C@@H]5CC[C@H]4C2(C)C)OC[C@H]1OC(C)=O | > 20 | > 20 |  |  |  |  |
| CC(=O)O[C@@H]1[C@@H](OC(C)=O)[C@H](O[C@H]2CC[C@]34C[C@]35C[C@H](F)[C@]3(C)[C@H]6[C@H](C)C[C@]7(OC(=O)[C@@]8(C)O[C@@H]78)O[C@H]6C[C@@]3(C)[C@@H]5CC[C@H]4C2(C)C)OC[C@H]1OC(C)=O | > 20 | > 20 |  |  |  |  |
| CC(=O)OC1O[C@]2(C[C@@H](C)[C@H]3[C@H](C[C@@]4(C)[C@@H]5CC[C@H]6C(C)(C)[C@@H](O[C@@H]7OC[C@@H](OC(C)=O)[C@H](OC(C)=O)[C@H]7OC(C)=O)CC[C@@]67C[C@@]57CC(=O)[C@]34C)O2)[C@@H]2O[C@]12C (some centres undefined) |  |  |  |  | inactive | inactive |
| CC(=O)O[C@@H]1[C@@H](OC(C)=O)[C@H](O[C@H]2CC[C@]34C[C@]35C[C@@H](OC(C)=O)[C@]3(C)[C@H]6[C@H](C)C[C@]7(O[C@H](OC(=O)c8ccc([N+](=O)[O-])cc8)[C@@]8(C)O[C@@H]78)O[C@H]6C[C@@]3(C)[C@@H]5CC[C@H]4C2(C)C)OC[C@H]1OC(C)=O | > 20 | > 20 |  |  |  |  |
| CC(=O)O[C@@H]1C[C@@]23C[C@@]24CC[C@H](O[C@@H]2OC[C@@H](O)[C@H](O)[C@H]2O)C(C)(C)[C@@H]4CC[C@H]3[C@]2(C)C[C@@H]3O[C@]4(C[C@@H](C)[C@@H]3[C@@]12C)OC(=O)[C@@]1(C)O[C@@H]41 | > 20 | > 20 |  |  |  |  |
| COC1O[C@]2(C[C@@H](C)[C@H]3[C@H](C[C@@]4(C)[C@@H]5CC[C@H]6C(C)(C)[C@@H](O[C@@H]7OC[C@@H](O)[C@H](O)[C@H]7O)CC[C@@]67C[C@@]57C[C@@H](OC(C)=O)[C@]34C)O2)[C@@H]2O[C@]12C (some centres undefined) | > 20 | > 20 |  |  |  |  |
| CC(=O)O[C@H]1O[C@]2(C[C@@H](C)[C@H]3[C@H](C[C@@]4(C)[C@@H]5CC[C@H]6C(C)(C)[C@@H](O[C@@H]7OC[C@@H](O)[C@H](O)[C@H]7O)CC[C@@]67C[C@@]57C[C@@H](OC(C)=O)[C@]34C)O2)[C@@H]2O[C@]12C | > 20 | > 20 |  |  |  |  |
| CO[C@@H]1O[C@]2(C[C@@H](C)[C@H]3[C@H](C[C@@]4(C)[C@@H]5CC[C@H]6C(C)(C)[C@@H](O[C@@H]7OC[C@@H](OC(C)=O)[C@H](OC(C)=O)[C@H]7OC(C)=O)CC[C@@]67C[C@@]57C[C@@H](OC(C)=O)[C@]34C)O2)[C@@H]2O[C@]12C | > 20 | > 20 |  |  |  |  |

Continued, in another order:

| IC50 (HCC1806 [1]) [µM] | IC50 (MDA-MB-231 [2]) [µM] | SMILES | inhibition at 20 µM (HCC1806 [3]) [%] | inhibition at 20 µM (MDA-MB-231 [4]) [%] | Activity (HCC1806 [1]) | Activity (MDA-MB-231 [2]) |
| --- | --- | --- | --- | --- | --- | --- |
| 3.42 | > 20 | CC(=O)O[C@@H]1[C@@H](OC(C)=O)[C@H](O[C@H]2CC[C@]34C[C@]35C[C@@H](OC(C)=O)[C@]3(C)[C@H]6[C@H](C)C[C@]7(OC(O)[C@@]8(C)O[C@@H]78)O[C@H]6C[C@@]3(C)[C@@H]5CC[C@H]4C2(C)C)OC[C@H]1OC(C)=O (some centres undefined) | > 50 | > 50 |  |  |
| > 20 | > 20 | CO[C@H]1O[C@]2(C[C@@H](C)[C@H]3[C@H](C[C@@]4(C)[C@@H]5CC[C@H]6C(C)(C)[C@@H](O[C@@H]7OC[C@@H](OC(C)=O)[C@H](OC(C)=O)[C@H]7OC(C)=O)CC[C@@]67C[C@@]57C[C@@H](OC(C)=O)[C@]34C)O2)[C@@H]2O[C@]12C |  |  |  |  |
| > 20 | > 20 | C[C@@H]1C[C@]2(OC(O)[C@@]3(C)O[C@@H]23)O[C@H]2C[C@@]3(C)[C@@H]4CC[C@H]5C(C)(C)[C@@H](O[C@@H]6OC[C@@H](O)[C@H](O)[C@H]6O)CC[C@@]56C[C@@]46CC(=O)[C@]3(C)[C@@H]12 (some centres undefined) |  |  |  |  |
| > 20 | > 20 | C[C@@H]1C[C@]2(OC(=O)[C@@]3(C)O[C@@H]23)O[C@H]2C[C@@]3(C)[C@@H]4CC[C@H]5C(C)(C)[C@@H](O[C@@H]6OC[C@@H](O)[C@H](O)[C@H]6O)CC[C@@]56C[C@@]46C[C@H](F)[C@]3(C)[C@@H]12 |  |  |  |  |
| > 20 | > 20 | CC(=O)O[C@@H]1[C@@H](OC(C)=O)[C@H](O[C@H]2CC[C@]34C[C@]35C[C@@H](OC(C)=O)[C@]3(C)[C@H]6[C@H](C)C[C@]7(O[C@H](OC(=O)c8ccccc8)[C@@]8(C)O[C@@H]78)O[C@H]6C[C@@]3(C)[C@@H]5CC[C@H]4C2(C)C)OC[C@H]1OC(C)=O |  |  |  |  |
| > 20 | > 20 | C[C@@H]1C[C@]2(OC(=O)[C@@]3(C)O[C@@H]23)O[C@H]2C[C@@]3(C)[C@@H]4CC[C@H]5C(C)(C)[C@@H](O[C@@H]6OC[C@@H](O)[C@H](O)[C@H]6O)CC[C@@]56C[C@@]46C=C[C@]3(C)[C@@H]12 |  |  |  |  |
| > 20 | > 20 | COc1ccc(C(=O)O[C@H]2O[C@]3(C[C@@H](C)[C@H]4[C@H](C[C@@]5(C)[C@@H]6CC[C@H]7C(C)(C)[C@@H](O[C@@H]8OC[C@@H](OC(C)=O)[C@H](OC(C)=O)[C@H]8OC(C)=O)CC[C@@]78C[C@@]68C[C@@H](OC(C)=O)[C@]45C)O3)[C@@H]3O[C@]23C)cc1 |  |  |  |  |
| > 20 | > 20 | CC(=O)O[C@@H]1C[C@@]23C[C@@]24CC[C@H](O[C@@H]2OC[C@@H](O)[C@H](O)[C@H]2O)C(C)(C)[C@@H]4CC[C@H]3[C@]2(C)C[C@@H]3O[C@]4(C[C@@H](C)[C@@H]3[C@@]12C)O[C@@H](OC(=O)CCC(=O)O)[C@@]1(C)O[C@@H]41 |  |  |  |  |
| 13.6 | > 20 | CC(=O)O[C@@H]1[C@@H](OC(C)=O)[C@H](O[C@H]2CC[C@]34C[C@]35C=C[C@]3(C)[C@H]6[C@H](C)C[C@]7(OC(=O)[C@@]8(C)O[C@@H]78)O[C@H]6C[C@@]3(C)[C@@H]5CC[C@H]4C2(C)C)OC[C@H]1OC(C)=O | > 50 | > 50 |  |  |
| 8.8 | 13 | CC(=O)O[C@@H]1[C@@H](OC(C)=O)[C@H](O[C@H]2CC[C@]34C[C@]35CC(=O)[C@]3(C)[C@H]6[C@H](C)C[C@]7(OC(O)[C@@]8(C)O[C@@H]78)O[C@H]6C[C@@]3(C)[C@@H]5CC[C@H]4C2(C)C)OC[C@H]1OC(C)=O (some centres undefined) | > 50 | > 50 |  |  |
| 10.7 | 12.1 | CC(=O)O[C@@H]1[C@@H](OC(C)=O)[C@H](O[C@H]2CC[C@]34C[C@]35CC(=O)[C@]3(C)[C@H]6[C@H](C)C[C@]7(O[C@@H](OC(=O)CCC(=O)O)[C@@]8(C)O[C@@H]78)O[C@H]6C[C@@]3(C)[C@@H]5CC[C@H]4C2(C)C)OC[C@H]1OC(C)=O | > 50 | > 50 |  |  |
| 8.21 | > 20 | CC(=O)OC1O[C@]2(C[C@@H](C)[C@H]3[C@H](C[C@@]4(C)[C@@H]5CC[C@H]6C(C)(C)[C@@H](O[C@@H]7OC[C@@H](OC(C)=O)[C@H](OC(C)=O)[C@H]7OC(C)=O)CC[C@@]67C[C@@]57C[C@@H](OC(C)=O)[C@]34C)O2)[C@@H]2O[C@]12C (some centres undefined) | > 50 | > 50 |  |  |
